From patent publication US20070167628A1, “Thiazole-2-carboxamide derivatives for use as hippar agonists in the treatment of i.a. dyslipidemia” (priority 2003, published 2007)

Legend:
Type in all cases: cell-based
Conditions in all cases: SPAP reporter
HPPARδ = target: T1, HPPARδ (Homo sapiens, UniProt Q03181); experiment: Transient transfection (transactivation) assay, hPPAR delta-GAL4 chimera in CV-1 cells
T1 construct: expressed in transfected cells; host or cells: CV-1 cells
T1 sequence (Q03181 211-439 limits assumed): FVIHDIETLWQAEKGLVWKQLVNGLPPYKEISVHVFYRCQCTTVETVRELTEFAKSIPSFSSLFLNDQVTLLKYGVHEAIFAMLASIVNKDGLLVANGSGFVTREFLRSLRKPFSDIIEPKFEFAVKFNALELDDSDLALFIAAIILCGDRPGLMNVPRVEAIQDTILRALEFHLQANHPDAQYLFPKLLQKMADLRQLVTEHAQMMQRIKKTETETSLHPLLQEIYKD
From the text: (§1) Compounds were screened for functional potency in transient transfection assays in CV-1 cells for their ability to activate the PPAR subtypes (transactivation assay). A previously established chimeric receptor system was utilized to allow comparison of the relative transcriptional activity of the receptor subtypes on the same target gene and to prevent endogenous receptor activation from complicating the interpretation of results. See, for example, Lehmann, J. M.; Moore, L. B.; Smith-Oliver, T. A.; Wilkison, W. O.; Willson, T. M.; Kliewer, S. A., An antidiabetic thiazolidinedione is a high affinity ligand for peroxisome proliferator-activated receptor gamma (PPARgamma), J. Biol. Chem., 270, 12953-6 (1995). The ligand binding domains for murine and human PPAR alpha, PPAR gamma, and PPAR delta were each fused to the yeast transcription factor GAL4 DNA binding domain. CV-1 cells were transiently transfected with expression vectors for the respective PPAR chimera along with a reporter construct containing five copies of the GAL4 DNA binding site driving expression of secreted placental alkaline phosphatase (SPAP) and beta-galactosidase. After 16 h, the medium was exchanged to DME medium supplemented with 10% delipidated fetal calf serum and the test compound at the appropriate concentration. […]

HPPARα = target: T2, HPPARα (Homo sapiens, UniProt Q07869); experiment: Transient transfection (transactivation) assay, hPPAR alpha-GAL4 chimera in CV-1 cells
T2 construct: expressed in transfected cells; host or cells: CV-1 cells
T2 sequence (Q07869 239-466 limits assumed): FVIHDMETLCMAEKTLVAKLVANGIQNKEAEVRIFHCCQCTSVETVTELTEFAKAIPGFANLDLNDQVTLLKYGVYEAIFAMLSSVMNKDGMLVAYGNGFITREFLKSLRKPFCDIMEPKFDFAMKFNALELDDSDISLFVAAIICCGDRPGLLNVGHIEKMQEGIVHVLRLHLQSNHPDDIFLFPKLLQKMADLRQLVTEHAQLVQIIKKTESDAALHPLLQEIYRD
From the text: as §1

HPPARγ = target: T3, HPPARγ (Homo sapiens, UniProt P37231); experiment: Transient transfection (transactivation) assay, hPPAR gamma-GAL4 chimera in CV-1 cells
T3 construct: expressed in transfected cells; host or cells: CV-1 cells
T3 sequence (P37231 238-503 limits assumed): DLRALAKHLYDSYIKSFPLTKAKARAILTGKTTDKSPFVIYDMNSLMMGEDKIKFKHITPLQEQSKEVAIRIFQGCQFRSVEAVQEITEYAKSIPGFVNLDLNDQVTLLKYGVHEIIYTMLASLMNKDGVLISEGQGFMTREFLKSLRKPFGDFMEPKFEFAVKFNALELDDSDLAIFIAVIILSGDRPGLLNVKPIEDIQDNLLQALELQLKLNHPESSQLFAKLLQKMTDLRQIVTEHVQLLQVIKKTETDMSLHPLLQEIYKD
From the text: as §1

Molecule Cc1nc(C(=O)NCc2ccc(OC(C)(C)C(=O)O)cc2)sc1-c1ccc(C(C)C)cc1 [Example 1, 2-methyl-2-[(4-{[({4-methyl-5-[4-(1-methylethyl)phenyl]-1,3-thiazol-2-yl}carbonyl)amino]methyl}phenyl)oxy]propanoic acid] has an EC50 (HPPARδ) of 6.1 µM, an EC50 (HPPARα) of 0.008 µM and an EC50 (HPPARγ) of 0.19 µM.
